Test [1] concerns the target T1, Bile acid receptor (Homo sapiens, UniProt Q96RI1).
T1 sequence (Q96RI1 whole entry): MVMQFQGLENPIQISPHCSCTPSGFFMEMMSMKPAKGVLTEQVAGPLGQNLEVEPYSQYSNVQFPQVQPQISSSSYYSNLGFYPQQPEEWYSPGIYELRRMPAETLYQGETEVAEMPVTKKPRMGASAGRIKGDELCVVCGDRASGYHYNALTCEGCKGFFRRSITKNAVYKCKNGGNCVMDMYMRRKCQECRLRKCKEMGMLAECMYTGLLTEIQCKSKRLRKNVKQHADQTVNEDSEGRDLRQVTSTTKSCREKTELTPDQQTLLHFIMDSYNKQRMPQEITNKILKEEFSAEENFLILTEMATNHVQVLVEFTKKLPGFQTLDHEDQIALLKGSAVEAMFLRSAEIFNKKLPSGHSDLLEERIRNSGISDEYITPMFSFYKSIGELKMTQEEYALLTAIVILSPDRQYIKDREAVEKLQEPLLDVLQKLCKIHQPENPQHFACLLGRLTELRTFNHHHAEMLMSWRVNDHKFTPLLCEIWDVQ
The experiment in a line: Agonist activity at FXR (unknown origin) transfected in human HepG2 cells incubated for 24 hrs by luciferase assay. Type of test: cell-based.

The target of test [2] is T2, Retinoic acid receptor alpha (Homo sapiens, UniProt P10276).
T2 sequence (P10276 whole entry): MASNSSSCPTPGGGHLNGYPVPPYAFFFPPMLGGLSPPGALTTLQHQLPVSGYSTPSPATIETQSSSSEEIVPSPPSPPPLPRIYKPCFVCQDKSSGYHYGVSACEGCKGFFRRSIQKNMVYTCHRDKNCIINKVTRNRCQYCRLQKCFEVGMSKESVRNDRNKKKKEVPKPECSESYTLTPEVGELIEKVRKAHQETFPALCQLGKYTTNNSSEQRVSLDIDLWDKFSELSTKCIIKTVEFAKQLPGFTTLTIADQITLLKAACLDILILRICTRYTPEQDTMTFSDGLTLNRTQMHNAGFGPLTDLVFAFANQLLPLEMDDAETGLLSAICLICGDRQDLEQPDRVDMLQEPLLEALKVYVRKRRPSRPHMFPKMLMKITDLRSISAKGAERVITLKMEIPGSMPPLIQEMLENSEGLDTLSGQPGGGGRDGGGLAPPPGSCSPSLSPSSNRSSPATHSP
The experiment in a line: Agonist activity at RARalpha (unknown origin) transfected in green monkey CV-1 cells co-transfected with NHR responsive luciferase reporter incubated for 18 hrs by luciferase assay. The format is cell-based.

In test [3] the target is T3, Retinoic acid receptor gamma (Homo sapiens, UniProt P13631).
T3 sequence (P13631 whole entry): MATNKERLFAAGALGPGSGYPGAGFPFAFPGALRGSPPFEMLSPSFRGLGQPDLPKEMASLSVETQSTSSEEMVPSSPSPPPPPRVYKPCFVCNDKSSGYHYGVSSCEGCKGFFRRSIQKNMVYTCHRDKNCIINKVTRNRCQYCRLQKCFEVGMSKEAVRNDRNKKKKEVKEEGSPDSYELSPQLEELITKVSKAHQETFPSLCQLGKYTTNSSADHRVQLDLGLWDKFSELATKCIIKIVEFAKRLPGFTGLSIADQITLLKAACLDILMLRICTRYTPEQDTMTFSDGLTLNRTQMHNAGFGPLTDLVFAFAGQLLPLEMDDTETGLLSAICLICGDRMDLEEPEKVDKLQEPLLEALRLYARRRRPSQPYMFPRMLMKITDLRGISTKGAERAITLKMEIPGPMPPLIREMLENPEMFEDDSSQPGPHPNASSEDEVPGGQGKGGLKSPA
Kind of test: Agonist activity at RARgamma (unknown origin) transfected in green monkey CV-1 cells co-transfected with NHR responsive luciferase reporter incubated for 18 hrs by luciferase assay. Type of test: cell-based.

Test [4] deals with T4, Progesterone receptor (Homo sapiens, UniProt P06401).
T4 sequence (P06401 whole entry): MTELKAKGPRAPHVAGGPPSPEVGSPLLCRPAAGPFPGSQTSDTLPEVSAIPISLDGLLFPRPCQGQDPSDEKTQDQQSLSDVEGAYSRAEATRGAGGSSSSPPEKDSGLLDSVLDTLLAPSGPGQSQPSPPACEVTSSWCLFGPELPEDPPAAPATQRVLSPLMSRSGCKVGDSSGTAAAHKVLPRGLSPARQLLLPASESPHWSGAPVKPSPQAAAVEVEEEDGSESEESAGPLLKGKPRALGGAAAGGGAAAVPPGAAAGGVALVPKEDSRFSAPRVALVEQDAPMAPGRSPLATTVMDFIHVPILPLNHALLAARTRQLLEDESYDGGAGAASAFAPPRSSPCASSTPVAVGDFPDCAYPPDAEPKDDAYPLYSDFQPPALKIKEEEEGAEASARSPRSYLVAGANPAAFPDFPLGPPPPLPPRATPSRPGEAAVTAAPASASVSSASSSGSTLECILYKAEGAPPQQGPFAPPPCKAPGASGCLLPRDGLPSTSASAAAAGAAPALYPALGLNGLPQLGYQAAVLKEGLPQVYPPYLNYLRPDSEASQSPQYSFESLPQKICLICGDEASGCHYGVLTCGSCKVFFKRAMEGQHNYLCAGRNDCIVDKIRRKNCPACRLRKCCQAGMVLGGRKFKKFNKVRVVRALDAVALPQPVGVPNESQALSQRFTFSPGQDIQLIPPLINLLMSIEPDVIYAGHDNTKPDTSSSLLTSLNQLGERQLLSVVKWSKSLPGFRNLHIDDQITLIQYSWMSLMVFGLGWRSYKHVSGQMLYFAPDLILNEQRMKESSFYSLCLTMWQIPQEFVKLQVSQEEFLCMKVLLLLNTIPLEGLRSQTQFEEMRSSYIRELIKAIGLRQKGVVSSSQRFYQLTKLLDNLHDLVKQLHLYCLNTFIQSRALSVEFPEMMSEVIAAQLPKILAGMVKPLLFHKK
Kind of test: Agonist activity at progesterone receptor (unknown origin) transfected in green monkey CV-1 cells co-transfected with NHR responsive luciferase reporter incubated for 18 hrs by luciferase assay. Type of test: cell-based.

For test [5], the target named is T5, Fatty acid-binding protein, liver (Homo sapiens, UniProt P07148).
T5 sequence (P07148 whole entry): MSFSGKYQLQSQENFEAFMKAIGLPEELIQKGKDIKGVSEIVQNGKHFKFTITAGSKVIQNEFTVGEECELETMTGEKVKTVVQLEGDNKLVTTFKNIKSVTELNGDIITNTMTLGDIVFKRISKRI
The experiment in a line: Inhibition of FABP1 (unknown origin).

Drawing on ChEMBL document CHEMBL6114960, “Discovery of First-in-Class FXR and HSD17B13 Dual Modulator for the Treatment of Metabolic Dysfunction-Associated Fatty Liver Disease” (J Med Chem, 2025), this text covers EC50 and IC50 for one molecule.

On to `O=C(O)c1ccc(-c2ccc(OCc3c(-c4c(Cl)cccc4Cl)noc3C3CC3)cc2)cc1`, for which the EC50 in test [1] was 0.132 µM; in test [2] it was greater than 10 µM; in test [3], greater than 10 µM; in test [4] it was greater than 10 µM. The IC50 in test [5] amounted to 8.5 µM.
